Patent publication US20160074298A1, “POLYPHENOL/FLAVONOID COMPOSITIONS AND METHODS OF FORMULATING ORAL HYGIENIC PRODUCTS” (VIZURI HEALTH SCIENCES LLC, priority 2014, published 2016)

Tests used:
[1] = Heat solubilization in Kolliphor RH-40; type: physicochemical
Text: Step 1. […] Step 3. […] Step 4. […] About 5% solution was stable. Step 1. […] Step 3.

[2] = Saliva concentrations of chronic 1% apigenin toothpaste users (Example 12); type: in vivo, human; conditions: chronic users of PeroxiCare with 1% apigenin
Protocol: Two subjects who have used PeroxiCare® with apigenin at a 1% concentration on a chronic basis provided saliva samples at:
Saliva was collected at each time point in 50 ml Falcon tubes and immediately transferred to a freezer. All samples were transported to Tufts University within 24 hours of collection. Apigenin in saliva was quantified using high performance liquid chromatograph (HPLC) with electrochemical detection (ECD). Apigenin in 1 ml saliva was extracted using 3 ml acetonitrile. After 2 min of rigorous vortexing, the mixture was spun at 2,000 rpm for 15 min at 4° C. Supernatant was dried under N2 gas, reconstituted with mobile phase A, and analyzed for apigenin with HPLC-ECD. The limit of quantification (LOQ) for apigenin and EGCG in this assay is 15 and 25 ng/ml saliva, respectively.

[3] = Stability in alkaline toothpaste with sodium bicarbonate and peroxide; type: physicochemical; conditions: high pH ~10-10.5; sodium bicarbonate, sodium carbonate peroxide, peroxide stabilizer
Protocol: It was experimentally determined that the toothpaste formulations containing both sodium bicarbonate and sodium carbonate peroxide together with stabilizing polymer formulations had pHs of ˜10-10.5. When aglycone flavone (i.e., apigenin and luteolin) powders were added to dentifrices including sodium bicarbonate, sodium bicarbonate peroxide and a peroxide stabilizer, it was also determined that soluble flavone sodium salts were formed that were stable in these highly oxidative peroxide compositions. The presence of stable soluble alkali metal flavone salts with highly anti-oxidant and anti-inflammatory properties in an emulsion formulation was totally unanticipated since aglycone flavones are prone to oxidative decomposition. Curcumin calcium chelate was fabricated and found to be stable in high pH PeroxiCare® toothpaste. Other curcumin chelates (Boron, Zn) were also found to be stable in this formulation, but were not tested in this study. This study was designed to determine if curcumin solubilized using either a heat solubilization or chelated salt technology performed in the same way as earlier results with the flavone apigenin. Vanillin is a breakdown product of curcumin and would be present if the curcumin had substantially decomposed (the lack of vanillin is indicative of a stable delivery of curcumin).

[4] = Apigenin and EGCG in saliva following use of formulated toothpastes (Example 15); type: in vivo, human; conditions: formulated into a toothpaste product
Protocol: This is a clinical study testing the effect of using one of 3 toothpaste products formulated with apigenin and epigallocatechin gallate (EGCG) on the retention of these flavonoids in the saliva. Briefly, 3 subjects provided saliva samples:
Each subject brushed their teeth for 2 min using the sulcular brushing technique with ˜1.8 gm toothpaste on a new toothbrush. Each subject brushed with only one of 3 products:
Saliva was collected at each time point in 50 mL Falcon tubes and immediately transferred to a freezer. All samples were transported to Tufts University within 8 hours of collection.
Apigenin in saliva was quantified using high performance liquid chromatograph (HPLC) with electrochemical detection (ECD). Apigenin and EGCG in 1 mL saliva was extracted using 3 ml acetonitrile. After 2 min of rigorous vortexing, the mixture was spun at 2,000 rpm for 15 min at 4° C. Supernatant was dried under N2 gas, reconstituted with mobile phase A, and analyzed for apigenin with HPLC-ECD. The limit of quantification (LOQ) for apigenin and EGCG in this assay is 15 and 25 ng/ml saliva, respectively.

[5] = Solubilization in Listerine mouth rinse as sodium salt; type: physicochemical
Protocol: 100 Grams of the Listerine® Resveratrol Containing Mouth Rinse Formulation was Prepared as Follows: • 1. 98.4 grams of the Listerine® caramel colored mouth rinse was added to a 300 ml Pyrex glass beaker. […] About 0.2 grams of fine NaOH crystals were added to the mixture from Step 2 and thoroughly mixed. A uniformly caramel colored blend resulted with a measured pH of ˜10. […] The pH of the mixture from Step 3 was adjusted to a pH 6.5 by the addition of about 0.2 grams of citric acid crystals. […] • 1. 98.6 grams of the Listerine® caramel colored mouthrinse was added to a 300 ml Pyrex glass beaker. […] About 0.2 grams of fine NaOH crystals were added to the mixture from Step 2 and thoroughly mixed. A uniformly caramel colored blend resulted with a measured pH of ˜10. […] The pH of the mixture from Step 2 was adjusted to a pH 8 by the addition of about 0.2 grams of citric acid crystals.

[6] = Stability of aqueous microemulsions as a function of pH; type: physicochemical; conditions: nonionic surfactants Polysorbate 80 and Cremophor/Kolliphor RH-40
Text: Stable microemulsions with apigenin and the nonionic surfactants, Polysorbate 80 and Cremophor/Kolliphor RH-40, were achieved provided a pH level of 8.0 to 8.5 was maintained. For luteolin, it as determined that a pH of 7 was required to maintain a stable aqueous microemulsion; and for resveratrol, a pH of >4.5 to 7.5.

[7] = Water solubility of flavonoid classes (Table XXIII); type: physicochemical; conditions: 20° C.
[8] = Colorimetric retention of EGCG in saliva after brushing (Example 14); type: in vivo, human; conditions: PeroxiCare toothpaste with 0.1 wt. % EGCG and 0.1 wt. % ascorbic acid, pH ~10.5; saliva after brushing and rinsing
Protocol: A saliva sample with an EGCG containing alkaline toothpaste was obtained (1) before brushing and (2) 1 minute after brushing immediately after rinsing. The subject brushed for 2 minutes using the sulcular brushing technique with ˜1.8 gm toothpaste on a toothbrush.
A 5 ml sample of saliva was collected 10 minutes prior to brushing. Tooth brushing was conducted for 2 minutes with 1.8 gm of toothpaste applied to the brush. One minute after brushing, the oral cavity was rinsed with 50 ml of water. Following rinsing, about 8 ml of saliva was collected. The pH of the saliva was measured. In addition, the saliva samples were further made alkaline with the addition of NaOH crystals and the color of the resulting sample noted.

## O=c1cc(-c2ccc(O)cc2)oc2cc(O)cc(O)c12 [Apigenin, 4′,5,7,-trihydroxyflavone]
[1]
  apigenin solubilized in RH-40: more than 5%
[2]
  persistence of apigenin levels in saliva post-brushing: at least 8 hours
[3]
  stability in alkaline peroxide toothpaste (PeroxiCare): stable
[4]
  time found in saliva following toothpaste use: at least one hour
5.0 wt. % apigenin in PS80, heated approaching 300 degree C, cooled to ambient
  stable apigenin concentrate in PS80: 50 mg/mL

## O=c1cc(-c2ccc(O)c(O)c2)oc2cc(O)cc(O)c12 [luteolin, 3′,4′,5,7-tetrahydroxyflavone]
[5]; adjusted to pH 8
  luteolin concentration of transparent solution: 1.5 mg/mL
[3]
  stability in alkaline peroxide toothpaste (PeroxiCare): stable
[6]
  pH required to maintain a stable aqueous microemulsion: 7

## calcium-curcumin chelate
[1]; equivalent concentration of 20% curcumin
  behaviour in Kolliphor RH-40: precipitates out
[1]; heat solubilized
  stable solution in Kolliphor RH-40: About 5%
[3]
  stability in alkaline peroxide toothpaste (PeroxiCare): stable

## Oc1ccc(C=Cc2cc(O)cc(O)c2)cc1 [resveratrol]
[5]; adjusted to pH 6.5
  resveratrol concentration of transparent solution: 1.2 mg/mL

## O.Oc1cc(O)c2c(c1)O[C@H](c1ccc(O)c(O)c1)[C@@H](O)C2 [Catechin]
20° C., thermal processing method, not the maximum solubility levels
  PS80 Solubility: 50 mg/mL
[7]
  Water Solubility: ~5 mg/mL

## O=C(O[C@@H]1Cc2c(O)cc(O)cc2O[C@@H]1c1cc(O)c(O)c(O)c1)c1cc(O)c(O)c(O)c1 [Epigallocatechin Gallate (EGCG), Epigallocatechin gallate]
[8]
  retention of EGCG in saliva by color change on alkalizing: retained after brushing
[4]
  time found in saliva following toothpaste use: at least one hour
